Results: US10766884B2 (Pfizer Inc., priority 2018, dated 2020)

Columns and labels:
CDK6/Cyclin D3 = CDK6/Cyclin D3 (Homo sapiens (Human), UniProt Q00534); assay: CDK6/Cyclin D3 mobility shift assay; assay type: biochemical; settings: activated CDK6/Cyclin D3, 3.5 mM ATP, Morrison fit; read-out: CDK6_D3 Ki
Description: (§1) The purpose of the CDK6/Cyclin D3 assay is to evaluate the inhibition (% inhibition, Kiapp and Ki values) in the presence of small molecule inhibitors by using a fluorescence based microfluidic mobility shift assay. […] The mobility shift assay electrophoretically separates the fluorescently labeled peptides (substrate and phosphorylated product) following the kinase reaction. Both substrate and product are measured and the ratio of these values is used to generate % conversion of substrate to product by the LabChip EZ Reader.
The reaction was stopped after 95 minutes by the addition of 50 μL of 30 mM EDTA. Ki determinations were made from a plot of the fractional velocity as a function of inhibitor concentration fit to the Morrison equation with the enzyme concentration as a variable.
(§2) For CDK4 and CDK6 mobility shift assays, see also Morrison, J. F. (1969) Kinetics of the reversible inhibition of enzyme-catalysed reactions by tight-binding inhibitors, Biochimica et biophysica acta 185, 269-286; and Murphy, D. J. (2004) Determination of accurate KI values for tight-binding enzyme inhibitors: an in silico study of experimental error and assay design, Analytical biochemistry 327, 61-67.

CDK4/Cyclin D1 = CDK4/Cyclin D1 (Homo sapiens (Human), UniProt P11802); assay: CDK4/Cyclin D1 mobility shift assay; assay type: biochemical; settings: activated CDK4/Cyclin D1, 3.5 mM ATP, Morrison fit; read-out: CDK4D1 Ki
Description: as §1, with “CDK4/Cyclin D1” for “of the CDK6/Cyclin D3”, “Conversion” for “conversion”
The reaction was stopped after 195 minutes by the addition of 50 μL of 30 mM EDTA. Ki determinations were made from a plot of the fractional velocity as a function of inhibitor concentration fit to the Morrison equation with the enzyme concentration as a variable.
as §2

CDK6/Cyclin D3, sequence (Q00534 whole entry): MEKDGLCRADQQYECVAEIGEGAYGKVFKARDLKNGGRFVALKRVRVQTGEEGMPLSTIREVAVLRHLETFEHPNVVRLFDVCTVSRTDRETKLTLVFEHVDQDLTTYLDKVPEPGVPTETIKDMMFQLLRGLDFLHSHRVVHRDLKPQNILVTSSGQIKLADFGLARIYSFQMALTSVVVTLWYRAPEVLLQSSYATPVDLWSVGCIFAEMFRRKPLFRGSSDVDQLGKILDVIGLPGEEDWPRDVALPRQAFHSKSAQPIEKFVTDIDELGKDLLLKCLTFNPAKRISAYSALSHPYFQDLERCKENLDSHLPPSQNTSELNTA
CDK6/Cyclin D3, sequence (P30281 whole entry partner): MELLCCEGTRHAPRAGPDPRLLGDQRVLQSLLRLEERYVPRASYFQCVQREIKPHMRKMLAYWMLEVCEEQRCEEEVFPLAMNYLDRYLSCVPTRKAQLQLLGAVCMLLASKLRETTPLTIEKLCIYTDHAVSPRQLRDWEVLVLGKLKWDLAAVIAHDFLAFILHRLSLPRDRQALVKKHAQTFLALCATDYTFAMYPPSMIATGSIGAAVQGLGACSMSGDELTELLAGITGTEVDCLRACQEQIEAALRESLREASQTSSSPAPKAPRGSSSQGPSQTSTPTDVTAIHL
CDK4/Cyclin D1, sequence (P11802 whole entry): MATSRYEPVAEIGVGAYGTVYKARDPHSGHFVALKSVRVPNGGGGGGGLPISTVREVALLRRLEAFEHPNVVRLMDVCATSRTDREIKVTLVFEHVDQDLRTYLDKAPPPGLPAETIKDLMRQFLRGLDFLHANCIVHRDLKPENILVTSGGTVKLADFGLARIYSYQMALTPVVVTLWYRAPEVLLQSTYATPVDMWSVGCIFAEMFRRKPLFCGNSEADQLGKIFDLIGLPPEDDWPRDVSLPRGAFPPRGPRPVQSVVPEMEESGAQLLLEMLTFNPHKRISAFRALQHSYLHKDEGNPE
CDK4/Cyclin D1, sequence (P24385 whole entry partner): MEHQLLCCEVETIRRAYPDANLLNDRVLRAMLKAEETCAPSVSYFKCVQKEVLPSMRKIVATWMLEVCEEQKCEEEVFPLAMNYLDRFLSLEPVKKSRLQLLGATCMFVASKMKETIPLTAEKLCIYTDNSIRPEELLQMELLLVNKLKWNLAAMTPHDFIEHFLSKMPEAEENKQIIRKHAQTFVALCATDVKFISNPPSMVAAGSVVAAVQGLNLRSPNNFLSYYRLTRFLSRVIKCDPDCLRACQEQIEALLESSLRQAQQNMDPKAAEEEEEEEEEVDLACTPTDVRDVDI

| Ki (CDK6/Cyclin D3) [nM] | Ki (CDK4/Cyclin D1) [nM] | SMILES |
| --- | --- | --- |
| 7.1 | 0.9 | CC(C)n1c(C2CCO2)nc2c(F)cc(-c3nc(N[C@@H]4CCN(S(C)(=O)=O)C[C@H]4O)ncc3Cl)cc21 (single isomer, unassigned) [Example A32] |
| 9.6 | 1.3 | CC1CNCc2nc3c(F)cc(-c4nc(N[C@@H]5CCOC[C@H]5O)ncc4Cl)cc3n21 (single isomer, unassigned) [Example A56, 1,5-anhydro-3-{[5-chloro-4-(9-fluoro-4-methyl-1,2,3,4-tetrahydropyrazino[1,2-a]benzimidazol-7-yl)pyrimidin-2-yl]amino}-2,3-dideoxy-D-threo-pentitol] |
| 39.9 | 4.3 | COC(=O)N1CC[C@@H](Nc2ncc(Cl)c(-c3cc(F)c4ncn(C5CCOC5)c4c3)n2)[C@H](O)C1 (single isomer, unassigned) [Example F02] |
| 26.4 | 2.7 | COC(=O)N1CC[C@@H](Nc2ncc(Cl)c(-c3cc(F)c4ncn(C5CCOC5)c4c3)n2)[C@H](O)C1 (single isomer, unassigned) [Example F03] |
| 125 | 15.3 | Cc1nc2c(F)cc(-c3nc(N[C@H]4CCN(C)C[C@@H]4O)ncc3F)cc2n1C(C)C (single isomer, unassigned) [Example F07] |
|  | 50 | CC(C)n1c([C@@H](C)O)nc2c(F)cc(-c3nc(N[C@@H]4CCN(S(C)(=O)=O)C[C@@H]4O)ncc3Cl)cc21 (single isomer, unassigned) [Example F12] |
| 17.3 | 4 | CN1CCC(Nc2ncc(F)c(-c3cc(F)c4ncn(C(C)(C)C)c4c3)n2)CC1 [Example A03] |
| 4.8 | 1.1 | Cc1nc2c(F)cc(-c3nc(N[C@@H]4CCN(S(C)(=O)=O)C[C@H]4O)ncc3Cl)cc2n1C [Example A08] |
| 49.7 | 3.2 | CN1Cc2nc3c(F)cc(-c4nc(N[C@@H]5CCOC[C@H]5O)ncc4Cl)cc3n2C(C)(C)C1 [Example A22] |
| 78 | 8.3 | CC(C)n1c(C(N)=O)nc2c(F)cc(-c3nc(N[C@@H]4CCOC[C@H]4O)ncc3Cl)cc21 [Example A33] |
| 102 | 11.1 | CNC(=O)c1nc2c(F)cc(-c3nc(N[C@@H]4CCOC[C@H]4O)ncc3Cl)cc2n1C(C)C [Example A34] |
| 34.2 | 3.5 | Cc1nc2c(F)cc(-c3nc(N[C@@H]4CCNC[C@H]4O)ncc3F)cc2n1C(C)C [Example A37, (3R,4R)-4-({5-fluoro-4-[4-fluoro-2-methyl-1-(propan-2-yl)-1H-benzimidazol-6-yl]pyrimidin-2-yl}amino)piperidin-3-ol] |
| 12.3 | 1.3 | Cc1nc2c(F)cc(-c3nc(N[C@@H]4CCN(S(C)(=O)=O)C[C@H]4O)ncc3Cl)cc2n1[C@@H](C)CN [Example A39, (3R,4R)-4-[(4-{1-[(2S)-1-aminopropan-2-yl]-4-fluoro-2-methyl-1H-benzimidazol-6-yl}-5-chloropyrimidin-2-yl)amino]-1-(methanesulfonyl)piperidin-3-ol] |
| 54.7 | 6 | C[C@@H](N)c1nc2c(F)cc(-c3nc(N[C@@H]4CCOC[C@H]4O)ncc3Cl)cc2n1C(C)(C)C [Example A42, 3-[(4-{2-[(1R)-1-aminoethyl]-1-tert-butyl-4-fluoro-1H-benzimidazol-6-yl}-5-chloropyrimidin-2-yl)amino]-1,5-anhydro-2,3-dideoxy-D-threo-pentitol] |
| 44 | 4.8 | CC(C)n1c(C2(N)CC2)nc2c(F)cc(-c3nc(N[C@@H]4CCOC[C@H]4O)ncc3Cl)cc21 [Example A43, 3-({4-[2-(1-aminocyclopropyl)-4-fluoro-1-(propan-2-yl)-1H-benzimidazol-6-yl]-5-chloropyrimidin-2-yl}amino)-1,5-anhydro-2,3-dideoxy-D-threo-pentitol] |
| 40.5 | 2.3 | CC1(C)CNCc2nc3c(F)cc(-c4nc(N[C@@H]5CCOC[C@H]5O)ncc4Cl)cc3n21 [Example A46, 1,5-anhydro-3-{[5-chloro-4-(9-fluoro-4,4-dimethyl-1,2,3,4-tetrahydropyrazino[1,2-a]benzimidazol-7-yl)pyrimidin-2-yl]amino}-2,3-dideoxy-D-threo-pentitol] |
| 110 | 17 | CC(C)n1c([C@@H](C)O)nc2c(F)cc(-c3nc(N[C@@H]4CCNC[C@H]4O)ncc3Cl)cc21 [Example A50, (3R,4R)-4-[(5-chloro-4-{4-fluoro-2-[(1R)-1-hydroxyethyl]-1-(propan-2-yl)-1H-benzimidazol-6-yl}pyrimidin-2-yl)amino]piperidin-3-ol] |
| 9.7 | 0.9 | CC1(n2c(CO)nc3c(F)cc(-c4nc(N[C@@H]5CCOC[C@H]5O)ncc4Cl)cc32)CC1 [Example A63, 1,5-anhydro-3-({5-chloro-4-[4-fluoro-2-(hydroxymethyl)-1-(1-methylcyclopropyl)-1H-benzimidazol-6-yl]pyrimidin-2-yl}amino)-2,3-dideoxy-D-threo-pentitol] |
| 10.7 | 2 | CC(C)(F)Cn1c(CO)nc2c(F)cc(-c3nc(N[C@@H]4CCOC[C@H]4O)ncc3Cl)cc21 [Example A64, 1,5-anhydro-3-({5-chloro-4-[4-fluoro-1-(2-fluoro-2-methylpropyl)-2-(hydroxymethyl)-1H-benzimidazol-6-yl]pyrimidin-2-yl}amino)-2,3-dideoxy-D-threo-pentitol] |
| 3.5 | 0.6 | CS(=O)(=O)N1CC[C@@H](Nc2ncc(Cl)c(-c3cc(F)c4nc(CO)n(C5CCC5)c4c3)n2)[C@H](O)C1 [Example A65, (3R,4R)-4-({5-chloro-4-[1-cyclobutyl-4-fluoro-2-(hydroxymethyl)-1H-benzimidazol-6-yl]pyrimidin-2-yl}amino)-1-(methanesulfonyl)piperidin-3-ol] |
| 54.7 | 12.1 | OCc1nc2c(F)cc(-c3nc(N[C@@H]4CCOC[C@H]4O)ncc3Cl)cc2n1C1CC(F)(F)C1 [Example A66, 1,5-anhydro-3-({5-chloro-4-[1-(3,3-difluorocyclobutyl)-4-fluoro-2-(hydroxymethyl)-1H-benzimidazol-6-yl]pyrimidin-2-yl}amino)-2,3-dideoxy-D-threo-pentitol] |
| 15.5 | 1.4 | CC(C)(O)c1nc2c(F)cc(-c3nc(N[C@@H]4CCOC[C@H]4O)ncc3Cl)cc2n1CC(F)F [Example A67, 1,5-anhydro-3-({5-chloro-4-[1-(2,2-difluoroethyl)-4-fluoro-2-(2-hydroxypropan-2-yl)-1H-benzimidazol-6-yl]pyrimidin-2-yl}amino)-2,3-dideoxy-D-threo-pentitol] |
| 124 | 26.2 | CCc1cnc(N[C@@H]2CCN(S(C)(=O)=O)C[C@H]2O)nc1-c1cc(F)c2nc(C)n(C(C)C)c2c1 [Example A70, (3R,4R)-4-({5-ethyl-4-[4-fluoro-2-methyl-1-(propan-2-yl)-1H-benzimidazol-6-yl]pyrimidin-2-yl}amino)-1-(methanesulfonyl)piperidin-3-ol] |
| 2.1 | 0.3 | Cc1nc2c(F)cc(-c3nc(N[C@@H]4CCN(S(C)(=O)=O)C[C@H]4O)ncc3Cl)cc2n1C1CC1 [Example A72, (3R,4R)-4-{[5-chloro-4-(1-cyclopropyl-4-fluoro-2-methyl-1H-benzimidazol-6-yl)pyrimidin-2-yl]amino}-1-(methanesulfonyl)piperidin-3-ol] |
| 24.6 | 3.8 | COc1cnc(N[C@@H]2CCN(S(C)(=O)=O)C[C@H]2O)nc1-c1cc(F)c2nc(C)n(C(C)C)c2c1 [Example A82, (3R,4R)-4-({4-[4-fluoro-2-methyl-1-(propan-2-yl)-1H-benzimidazol-6-yl]-5-methoxypyrimidin-2-yl}amino)-1-(methanesulfonyl)piperidin-3-ol] |
|  | 0.6 | CC(O)c1nc2c(F)cc(-c3nc(N[C@@H]4CCN(S(=O)(=O)C(F)F)C[C@H]4O)ncc3Cl)cc2n1C(C)C (stereo partly drawn) [Example F09, (3R,4R)-4-({5-chloro-4-[4-fluoro-2-(1-hydroxyethyl)-1-(propan-2-yl)-1H-benzimidazol-6-yl]pyrimidin-2-yl}amino)-1-(difluoromethanesulfonyl)piperidin-3-ol] |
|  | 11.6 | CC(C)n1c([C@@H](C)O)nc2c(F)cc(-c3nc(N[C@H]4CCN(S(C)(=O)=O)C[C@@H]4O)ncc3Cl)cc21 [Example F13, (3S,4S)-4-[(5-chloro-4-{4-fluoro-2-[(1R)-1-hydroxyethyl]-1-(propan-2-yl)-1H-benzimidazol-6-yl}pyrimidin-2-yl)amino]-1-(methanesulfonyl)piperidin-3-ol] |

| SMILES | Ki (CDK6/Cyclin D3) [nM] | Ki (CDK4/Cyclin D1) [nM] |
| --- | --- | --- |
| CC1OCC(C)n2c1nc1c(F)cc(-c3nc(N[C@@H]4CCOC[C@H]4O)ncc3Cl)cc12 (single isomer, unassigned) [Example A20] | 20.4 |  |
| CC1OCC(C)n2c1nc1c(F)cc(-c3nc(N[C@@H]4CCOC[C@H]4O)ncc3Cl)cc12 (single isomer, unassigned) [Example A21] | 136 |  |
